The values below come from ChEMBL document CHEMBL1151451 (Antimicrob Agents Chemother, 2007).

The test system of data set [1] is Mycobacterium tuberculosis. The data set can be described thus: Antimicrobial activity against Mycobacterium tuberculosis H37Rv infected in CD-1 mouse lung at 75 mg/kg administered through gavage. It is filed as functional.
Data set [2] can be described thus: Drug level in CD-1 mouse serum at […] administered through gavage after 24 hrs. Format: ADME. The following applies: po, read-out: Drug uptake.
Data set [3] relates to Mycobacterium tuberculosis. It is filed as functional.
Data set [4] deals with Mycobacterium tuberculosis. The data set can be described thus: Antimicrobial activity against Mycobacterium tuberculosis H37Rv infected in CD-1 mouse lung. It is filed as functional.
The test system of data set [5] is Mycobacterium tuberculosis. Format: functional. The source holds these as a separate data set.
Data set [6] in a line: AUC (0 to 24 hrs) in CD-1 mouse at […] administered through gavage. It is filed as ADME, organism-based. The following applies: plasma, po.
Data set [7] deals with Mycobacterium tuberculosis. Briefly: Antimicrobial activity against avirulent Mycobacterium tuberculosis H37Ra.
Data set [8] can be described thus: AUC in human at 400 mg, po. It is filed as ADME, organism-based. The conditions noted are these: plasma.

Molecules are shown by their SMILES. ≈ marks a conversion by molar mass, not a printed value.

`COc1c(N2C[C@@H]3CCCN[C@@H]3C2)c(F)cc2c(=O)c(C(=O)O)cn(C3CC3)c12` [MOXIFLOXACIN]: the log10cfu came out at 0.93 in data set [1], 3.48 in data set [3], 7.87 in data set [4] and 8.61 in data set [5]. The concentration at 24 h in data set [2] was found to be 8000 ng/mL. For the same compound, the AUC(0-t) (commonly the area under the concentration-time curve up to a stated or last time point) in data set [6] came to 27400 ng·h/mL. Moreover, it took 0.25 µg/mL (≈ 0.623 µM) to inhibit growth in data set [7] (MIC). Further, the AUC (commonly concentration integrated over time) in data set [8] is 26900 ng·h/mL.
